System: SH-SY5Y cells
Assay: Neurite outgrowth (differentiation) in SH-SY5Y cells, Tubulin Tracker imaging
Assay type: cell-based, human
Protocol: Transferrin is utilized in cell culture and in-vivo to deliver iron as a nutrient to cells. This is typically accomplished through the actions of holo-transferrin (HoloTf) binding to, and endocytosis by, its cognate receptor CD71, the transferrin receptor 1 (TfR1). Transferrin is typically believed to provide cells with iron as a means to promote and sustain metabolic activity. […] Induction of neuronal differentiation was assessed by morphological parameters of neurite formation (a key element typically used as a marker of neuronal differentiation, neuronal health, and function) according to the procedures of Agholme, 2010. J. of Alzheimer's Disease. Vol. 20:1p 069-108; and Dyberg et al., 2017. PNAS Vol 114 (32), E6603-E6612.
Undifferentiated SH-SY5Y cells were seeded into 96 well clear bottom plates in media containing 0.1% FBS. A serum-free base media was utilized as recommended by the supplier for SH-SY5Y cells (Sigma, Cat #94030304-1VL). Twenty-four hours after seeding cells, a 3× stock solution of ApoTf, final concentrations indicated on the x-axis, in serum free base media was added to the cells. ApoTf was obtained and purified from pooled human plasma and dosed at a final concentration of 0.2 mg/mL.
Cells were allowed to differentiate for 6 days. Neurite growth was assessed by imaging and image analysis. At the time of analysis, a 10× solution of Tubulin Tracker (Molecular Probes, T34075) and Hoechst 33342 (Molecular Probes #H3570) nuclear stain was prepared.
Briefly, Tubulin Tracker dissolved in DMSO was diluted 1:1 with Pluronic F-127 and further diluted into HBSS to generate a 10× solution. Hoechst 33342 was added to the HBSS-Tubulin Tracker solution at 10 μg/mL to generate a 10× nuclear stain. The 10× staining solution (10 μL) was added directly to treated assay wells and incubated at 37° C. for 30 minutes. Following incubation, 110 μL of 0.4% Trypan Blue was added directly to assay wells and imaged on a Molecular Devices Nano imaging instrument. Nine images/well were acquired in the blue (Nuclei) and green (Tubulin) fluorescent channels for each image.
After obtaining images, the MetaExpress Neurite Outgrowth analysis module (Molecular Devices) was used to identify cells, cell bodies, and quantify neurites. The total number of neurite branches were divided by the total number of cells imaged to account for different numbers of cells in each test well. The Outgrowth Fold Change was determined by setting the untreated control cells to a value of 1 with all other treatments shown relative to untreated control.
Undifferentiated SH-SY5Y cells were seeded and treated as described in Example 1. Neurite growth was assessed by imaging and image analysis. At the time of analysis, a 10× solution of Tubulin Tracker (Molecular Probes, T34075) and Hoechst 33342 (Molecular Probes #H3570) nuclear stain was prepared. Briefly, Tubulin Tracker dissolved in DMSO was diluted 1:1 with Pluronic F-127 and further diluted into HBSS to generate a 10× solution. Hoechst 33342 was added to the HBSS-Tubulin Tracker solution at 10 μg/mL to generate at 10× nuclear stain. The 10× staining solution (10 μL) was added directly to treated assay wells and incubated at 37° C. for 30 minutes. Following incubation, 110 μL of 0.4% Trypan Blue was added directly to assay wells and imaged on a Molecular Devices Nano imaging instrument. Nine images/well were acquired in the blue (Nuclei) and green (Tubulin) fluorescent channels for each image. After obtaining images, the MetaExpress Neurite Outgrowth analysis module (Molecular Devices) was used to identify cell bodies and quantify neurites. The total number of neurite branches were divided by the total number of cells imaged to account for different numbers of cells. The Outgrowth Fold Change was determined by setting the untreated control to a value of 1 with all other treatments shown relative to untreated control. ApoTf was obtained and purified from pooled human plasma and dosed at a final concentration of 0.2 mg/mL. […]

Substance: apo-transferrin: iron-free form of transferrin protein, obtained and purified from pooled human plasma
- neurite outgrowth (Outgrowth Fold Change) (FIG. 1A, dose response up to 0.8 mg/mL, 6 days): able to induce neurite outgrowth in a dose dependent manner
- neurite/tubulin outgrowth, visual comparison to untreated control (FIG. 1C, 0.1 mg/mL): promoting induction of neurite/tubulin outgrowth
- neurite outgrowth / differentiation versus concentration (FIG. 3A, DFO versus ApoTf): continues to increase differentiation even up to 9.9 μM
- neurogenesis (neurite outgrowth) of SH-SY5Y (FIG. 3B, proteins at 0.2 mg/mL): did induce neurogenesis
- neurogenic effect, ApoTf in combination with Y-27632 (FIG. 8, ApoTf 0.1 mg/mL plus Y-27632 50 μM): the neurogenic effect was synergistic
- differentiation / neurite outgrowth, combination with neurotrophic factors (FIGS. 7A-7D, ApoTf 0.1 mg/mL plus factor): synergistic effect

Reference: patent publication US20230265167A1, “COMPOSITIONS HAVING NEUROREGENERATIVE APPLICATIONS” (GRIFOLS WORLDWIDE OPERATIONS LIMITED, priority 2020, published 2023)
